Experimental data: ChEMBL document CHEMBL1126416, “Caracasanamide, a novel hypotensive agent from Verbesina caracasana” (Bioorg Med Chem Lett, 1992)

Key:
Format in all cases: functional, organism-based
[1] = test system: Rattus norvegicus; test: Concentration at which decrease blood pressure of anesthetized rat when administered intravenously; 50-6400 ug/kg body weight
[2] = test system: Rattus norvegicus; test: Concentration at which increase cardiac inotropism of anesthetized rat when administered intravenously was observed; 50-6400 ug/kg body weight
[3] = test system: Rattus norvegicus; test: Concentration at which increase in respiratory frequency of anesthetized rat when administered intravenously was observed; 50-6400 ug/kg body weight
[4] = test system: Rattus norvegicus; test: Concentration at which increase in tidal volume of anesthetized rat when administered intravenously was observed; 50-6400 ug/kg body weight
[5] = test system: Rattus norvegicus; test: Concentration at which no change in heart rate of anesthetized rat when administered intravenously was observed; 50-6400 ug/kg body weight

Measured: Concentration

COc1ccc(/C=C\C(=O)NCCCC/N=C(\N)NCC=C(C)C)cc1OC
50 µg/kg: [1] | [2] | [3] | [4] | [5]
